Test results: US11998549B2, “Methods of treating a vascular leakage-associated disease or disorder” (UNITY HEALTH TORONTO, priority 2019, dated 2024)

Tests used:
[1] = tested on: LPS induced zebrafish sepsis model; assay: Survival in LPS induced zebrafish sepsis model; assay type: in vivo; settings: 24 h
Protocol: An LPS induced zebrafish sepsis model which mimics the hallmarks of human sepsis was developed (Philip et al., 2017). Zebrafish show varied susceptibility and responsiveness to LPS from different bacterial strains. Exposure of zebrafish larvae at 3 days post-fertilization (dpf) to two types of LPS (LPS from Escherichia coli 0111:B4 (Sigma) at 100 μg/ml for 5-6 hrs; or LPS from Salmonella at 27 μg/ml for 24 hrs) were both effective in inducing tail fin swelling, increased ROS production, increased vascular leakage and increased mortality.
Survival analyses for zebrafish (wildtype) exposed to various concentrations of LPS (Escherichia coli 0111:B4; Sigma) was performed. 3 dpf larvae were exposed to LPS by immersion technique. Larvae were treated with 10, 25, 50, 125, 250, 500, 1000, 2500, 5000 or 10000 nM UNC0642 along with 100 μg/ml LPS (LPS was dissolved in eggwater), by static immersion at 28.5° C. for 24 h in a total volume of 2 mL per treatment. Control larvae were exposed to egg water. Survival numbers were recorded and EC50s calculated.
3 dpf larvae were exposed to LPS by immersion technique. […] Control larvae were exposed to egg water. Survival numbers were recorded and EC50s calculated. The percentage (%) of embryos showing vascular leakage was also recorded and 1050s calculated.

[2] = tested on: VE cadherin in HUVEC cells; assay: Immunostaining of VE cadherin in HUVEC cells; assay type: cell-based, human; settings: LPS 1 μg/ml + UNC0642 2.5 nM, 24 hours
Protocol: HUVEC cells were seeded onto Lab-Tek II Chamber slide system at 1×10^6 cells/ml and grown to confluency. At 80-95% confluency they were treated with either the vehicle, LPS (1 μg/ml), LPS (1 μg/ml)+UNC0642 (2.5 nM) or UNC0642 (2.5 nM) for 24 hours. Then the following steps for immunostaining were performed • 1. Fixed the cells in 4% formaldehyde in warm PBS for 20 minutes at room temperature • 2. Aspirated the fixative • 3. Washed 3 times in PBS, 5 minutes each • 4. Blocked in blocking buffer for 2 hours at room temperature • 5. Aspirated the blocking buffer • 6. Added primary antibody VE cadherin (monoclonal VE Cad; cell signalling 2500S) at a dilution of 1:200 and incubated overnight at 4° C. • 7. Washed 3 times in PBS, 10 minutes each • 8. Added secondary antibody (goat anti-rabbit IgG Alexa Fluor 568; 1:1000 and Alexa Fluor 488 phalloidin; 1:1,000) and incubated for 2 hours at room temperature. • 9. Washed the cells 3 times in PBS, 10 minutes each at room temperature and mounted with a cover slip in 4′,6-diamidino-2-phenylindole (DAPI) Vectashield.
Images were taken with a Zeiss™ confocal microscope. […] (FIG. 10)

[3] = tested on: human umbilical vein endothelial cells (HUVECs); assay: FITC dextran leakage assay in HUVEC monolayer; assay type: cell-based; settings: HUVEC on transwell, LPS 1 μg/ml + UNC0642 2.5 nM
Protocol: To determine the functional significance of G9a inhibition in human cells, solute permeability and electrical resistance across a confluent HUVEC monolayer was assessed. For both experiments, HUVEC were seeded at 1×10^6 cells/ml on Matrigel™ coated 3-μm pore size transwell inserts in 24-well plates from BD Discovery Labware™ (catalog number 354575) and grown to confluency. The cells were then treated with either the vehicle, LPS (1 μg/ml) or LPS (1 μg/ml)+UNC0642 (2.5 nM).
Assessment of Paracellular Permeability: Dextran sulfate-FITC (3 kD, Invitrogen™ Molecular Probes catalog number D-3306) was added to the lower chamber to a final concentration of 10 μg/ml. Simultaneously, the different treatment conditions mentioned above were added to the lower chamber. FITC fluorescence was measured at different time intervals (0 h, 1.5 h, 2.5 h, 24 h) in samples taken from the top chamber as a measure of paracellular dextran leak. […] (FIG. 11, Panel A)

[4] = tested on: IL-1, IL-6, TNFα and IL811 transcript levels; assay: Quantitative RT-PCR of pro-inflammatory cytokines in zebrafish sepsis model; assay type: in vivo; settings: 3 dpf larvae, LPS 27 μg/ml (Salmonella) + 1 μM UNC0642, 24 h
Excerpt: (§1) Quantitative reverse transcription polymerase chain reaction (RT-PCR) was used to assess relative expression of cytokines (an average of 3 trials, each trial with a pool of 20 larvae/treatment) and cellular junction proteins (an average of 3 trials, each trial with a pool of 20 larvae/treatment), using elongation factor 1 a (EF1a) as the housekeeping gene control. […] UNC0642 reverses LPS induced reduction in the transcript levels of cellular junction proteins, namely occludin a, occludin b and ZO-1. UNC0642 also upregulates cellular junction protein transcript levels of occludin b, claudin 5a, claudin 5b and claudin 2, potentially improving vascular stability.
(§2) RNA extraction and cDNA synthesis. Wildtype zebrafish larvae (3 dpf) were exposed to Vehicle, LPS (27 μg/ml; LPS from Salmonella) or LPS+1 μM UNC0642 by static immersion for 24 h. Total RNA was extracted from these larvae (pool of 20 larvae/treatment) using the RNeasy extraction kit (Qiagen™, Mississauga, Ontario, Canada) and treated with DNase. The concentration of total RNA was determined spectrophotometrically at 260/280 nm using a NanoDrop™ spectrophotometer. […]
(§3) PCR conditions. […] The primers are not listed, since suitable primers will be readily apparent to the skilled person.

[5] = tested on: human pulmonary microvascular endothelial cells (HPMECs); assay: FITC dextran permeability assay in HPMEC monolayer; assay type: cell-based; settings: FITC-conjugated dextran
Excerpt: Cultured endothelial cells are used to model the microvascular endothelium, because of the feasibility of performing complex molecular or pharmacological experiments to study cellular signalling pathways related to barrier function and integrity. In addition, the lung is the organ most often affected by sepsis induced-MODS. To determine the functional significance of G9a inhibition in human cells, solute permeability and electrical resistance across a confluent human pulmonary microvascular endothelial cell (HPMEC) monolayer was assessed. For both experiments HPMECs were seeded on 0.4 μm-pore polyester transwells (Costar) coated with Attachment Factor (Invitrogen), grown to confluency, and then […] with either UNC0462 or vehicle control.
FITC fluorescence was be measured at different time intervals in samples taken from the bottom compartment as a measure of paracellular dextran leak.

[6] = tested on: cellular junction protein transcript levels; assay: Quantitative RT-PCR of cellular junction proteins in zebrafish sepsis model; assay type: in vivo; settings: 3 dpf larvae, LPS 27 μg/ml (Salmonella) + 1 μM UNC0642, 24 h
Excerpt: as §1, §2, §3

`COc1cc2c(NC3CCN(C(C)C)CC3)nc(N3CCC(F)(F)CC3)nc2cc1OCCCN1CCCC1` [UNC0642, 2-(4,4-Difluoropiperidin-1-yl)-6-methoxy-N-[1-(propan-2-yl)piperidin-4-yl]-7-(3-(pyrrolidin-1-yl)propoxy]quinazolin-4-amine] was tested, and the EC50 ([1]; Escherichia coli, in Danio rerio, read-out: EC50 for improved survival of septic zebrafish larvae) was 789 nM, the “Rescue of sepsis-associated mortality” value ([1]; comparison of UNC0642 and A366, zebrafish larvae, 27 μg/ml LPS) was “able to rescue” and the “LPS-caused decrease in level and patterning of VE cadherin” value [2] was “partially rescued”. For the same molecule, the “LPS induced vessel permeability (FITC dextran leakage)” value [3] was “protects against LPS induced vessel permeability”, the “LPS induced increases in transcript levels of pro-inflammatory cytokines IL-1, IL-6, TNFα and IL811” value [4] was “significantly mitigates” and the “LPS-induced endothelial barrier dysfunction (increased dextran leakage)” value [5] was “significantly mitigate”. For the same molecule, the “LPS induced reduction in transcript levels of occludin a, occludin b and ZO-1” value [6] was “reverses” and the “Transcript levels of occludin b, claudin 5a, claudin 5b and claudin 2” value [6] was “upregulates”.
